Data published in patent US20260001889A1, “COMPOSITIONS USEFUL FOR MODULATING SPLICING” (Skyhawk Therapeutics, Inc., priority 2022, published 2026).

What was measured:
[1] = test system: ATXN3 transcripts containing exon 4; assay: ATXN3 Quantitative Splicing Assay (qPCR, E4E5 primers/probe); type: cell-based; details: Homo sapiens, SK-N-MC cells, compounds for 24 h
Procedure, shortened: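 Exon 4-containing ATXN3 transcripts are quantified by TaqMan qPCR (E4E5 primers/probe) on cell-lysate cDNA, with total ATXN3 from the E8E9 set. Source cells: human neuroblastoma SK-N-MC, exposed for 24 h to compound at 30 μM down to 0.6 nM.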

total ATXN3 protein = assay: ATXN3 Total Protein Assay (Mesoscale Discovery, SK-N-MC cells); type: cell-based, Human; details: incubation for 48 hours, MSD assay
Procedure, shortened: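 Readout: MSD electrochemiluminescence immunoassay of lysates, calibrated with recombinant ATXN3 and using mouse/rabbit anti-ATXN3 antibody pair. Cells (SK-N-MC, human) were exposed for 48 h to compound doses between 30 μM and 0.6 nM.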

ATXN3-HiBiT protein = assay: ATXN3 Total Protein Assay (Kelly-ATXN3-HiBiT luminescence); type: cell-based; details: Kelly-ATXN3-HiBiT cells, 48 h after addition of compound
Procedure, shortened: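 Endogenous ATXN3-HiBiT protein in knock-in Kelly neuroblastoma cells measured by lytic HiBiT luminescence 48 h post-compound (added 24 h after seeding 2000 cells/well). Values are fold changes relative to DMSO, with viability from a parallel CellTiter-Glo plate.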

SMILES | IC50 [1] [µM] | IC50 (total ATXN3 protein) [µM] | EC50 (ATXN3-HiBiT protein) [µM]
C[C@H](N)Cc1oc2c(NCc3ccco3)cc(Cl)nc2c1C#N [Compound 238, 2-[(S)-2-aminopropyl]-5-chloro-7-(furfurylamino)-1-oxa-4-aza-3-indenecarbonitrile] | 10 to 40 | 10 to 40 | 10 to 40
C[C@H](N)C(F)(F)c1oc2c(NCc3ccco3)cc(Cl)nc2c1Cl [Compound 239, 2-[(S)-2-amino-1,1-difluoropropyl]-3,5-dichloro-7-(furfurylamino)-1-oxa-4-azaindene] | 0.101 to 0.5 | 0.101 to 0.5 | 0.101 to 0.5
C[C@H](F)[C@H](N)Cc1oc2c(NCc3cccs3)cc(Cl)nc2c1C1CC1 [Compound 240, 2-[(2R,3S)-2-amino-3-fluorobutyl]-5-chloro-3-cyclopropyl-7-thenylamino-1-oxa-4-azaindene] | 0.501 to 5 | 0.501 to 5 | 0.501 to 5
N[C@H](Cc1oc2c(NCc3cccs3)cc(Cl)nc2c1Br)C(F)F [Compound 242, 2-[(R)-2-amino-3,3-difluoropropyl]-3-bromo-5-chloro-7-thenylamino-1-oxa-4-azaindene] | 0.101 to 0.5 | 0.101 to 0.5 | 0.101 to 0.5
N[C@H](Cc1oc2c(NCc3ccco3)cc(Cl)nc2c1Br)C(F)F [Compound 243, 2-[(R)-2-amino-3,3-difluoropropyl]-3-bromo-5-chloro-7-(furfurylamino)-1-oxa-4-azaindene] | 0.501 to 5 | 0.101 to 0.5 | 0.501 to 5
C=C(C)c1c(C[C@H](C)N)oc2c(NCc3cccs3)cc(Cl)nc12 [Compound 252, 2-[(S)-2-aminopropyl]-5-chloro-3-isopropenyl-7-thenylamino-1-oxa-4-azaindene] | 10 to 40 | 5 to 10 | 0.501 to 5
C/C=C/c1c(C[C@H](C)N)oc2c(NCc3cccs3)cc(Cl)nc12 [Compound 253, 3-[(E)-1-propenyl]-2-[(S)-2-aminopropyl]-5-chloro-7-thenylamino-1-oxa-4-azaindene] | 0.501 to 5 | 0.501 to 5 | 10 to 40
C/C=C\c1c(C[C@H](C)N)oc2c(NCc3cccs3)cc(Cl)nc12 [Compound 254, 2-[(S)-2-aminopropyl]-3-[(Z)-1-propenyl]-5-chloro-7-thenylamino-1-oxa-4-azaindene] | 0.501 to 5 | 0.501 to 5 | 0.501 to 5
C[C@H](N)Cc1oc2c(NCc3cccs3)cc(Cl)nc2c1-c1cccs1 [Compound 256, 2-[(S)-2-aminopropyl]-5-chloro-7-thenylamino-3-(2-thienyl)-1-oxa-4-azaindene] | 10 to 40 | 5 to 10 | 10 to 40
C[C@H](N)Cc1oc2c(NCc3cccs3)cc(Cl)nc2c1-c1nccs1 [Compound 257, 2-[(S)-2-aminopropyl]-5-chloro-7-thenylamino-3-(1,3-thiazol-2-yl)-1-oxa-4-azaindene] | 10 to 40 | 10 to 40 | 10 to 40
C[C@H](N)Cc1oc2c(NCc3cccs3)cc(Cl)nc2c1-c1ccsc1 [Compound 260, 2-[(S)-2-aminopropyl]-5-chloro-7-thenylamino-3-(3-thienyl)-1-oxa-4-azaindene] | 10 to 40 | 0.501 to 5 | 10 to 40
C[C@H](N)Cc1oc2c(NCc3cccs3)cc(Cl)nc2c1-c1ncco1 [Compound 262, 2-[(S)-2-aminopropyl]-5-chloro-3-(1,3-oxazol-2-yl)-7-thenylamino-1-oxa-4-azaindene] | 0.101 to 0.5 | 0.101 to 0.5 | 0.101 to 0.5
C[C@H](N)Cc1oc2c(NCc3cccs3)cc(Cl)nc2c1-c1cscn1 [Compound 263, 2-[(S)-2-aminopropyl]-5-chloro-7-thenylamino-3-(1,3-thiazol-4-yl)-1-oxa-4-azaindene] | 0.501 to 5 | 0.501 to 5 | 0.501 to 5
C[C@H](N)Cc1oc2c(NCc3cccs3)c(F)c(Cl)nc2c1Br [Compound 275, 2-[(S)-2-aminopropyl]-3-bromo-5-chloro-6-fluoro-7-thenylamino-1-oxa-4-azaindene] | 0.501 to 5 | 0.501 to 5 | 0.501 to 5
C#Cc1c(C[C@H](C)N)oc2c(NCc3cccs3)c(F)c(Cl)nc12 [Compound 276, 2-[(S)-2-aminopropyl]-5-chloro-3-ethynyl-6-fluoro-7-thenylamino-1-oxa-4-azaindene] | 0.501 to 5 | 0.501 to 5 | 0.501 to 5
C[C@H](F)[C@H](N)Cc1oc2c(NCc3cccs3)c(F)c(Cl)nc2c1Br [Compound 277, 2-[(2R,3S)-2-amino-3-fluorobutyl]-3-bromo-5-chloro-6-fluoro-7-thenylamino-1-oxa-4-azaindene] | 0.501 to 5 | 0.501 to 5 | 0.501 to 5

SMILES | IC50 [1] [µM] | IC50 (total ATXN3 protein) [µM] | EC50 (ATXN3-HiBiT protein) [µM]
[2H][C@](N)(COC)Cc1oc2c(NCc3cccs3)cc(Cl)nc2c1Br [Compound 285, 2-[(R)-2-amino-3-methoxy(2-^2H)propyl]-3-bromo-5-chloro-7-thenylamino-1-oxa-4-azaindene] | 0.101 to 0.5 | 1e-05 to 0.1 | 1e-05 to 0.1
C[C@H](N)Cc1oc2c(NCc3cccs3)cc(C(N)=O)nc2c1Br [Compound 288, 2-[(S)-2-aminopropyl]-3-bromo-7-thenylamino-1-oxa-4-aza-5-indenecarboxamide] | 10 to 40 | 10 to 40 | 10 to 40
CC#C[C@@H](Cc1oc2c(NCc3cccs3)cc(Cl)nc2c1Br)NC [Compound 295, 3-bromo-5-chloro-2-[(2R)-2-(methylamino)pent-3-yn-1-yl]-N-(thiophen-2-ylmethyl)furo[3,2-b]pyridin-7-amine] | 0.501 to 5 | 0.501 to 5 | 0.101 to 0.5
[2H]C([2H])(c1oc2c(NCc3cccs3)cc(Cl)nc2c1Br)[C@@H](N)COC [Compound 304, 2-[(R)-2-amino-3-methoxy(1,1- ^2H2)propyl]-3-bromo-5-chloro-7-thenylamino-1-oxa-4-azaindene] | 1e-05 to 0.1 | 1e-05 to 0.1 | 1e-05 to 0.1
C[C@H](N)Cc1oc2c(NCc3cccs3)cc(Cl)nc2c1-c1cnco1 [Compound 310] | 0.101 to 0.5 | 0.101 to 0.5 | 0.101 to 0.5
C[C@H](N)Cc1oc2c(NCc3cccs3)cc(Cl)nc2c1-c1ccco1 [Compound 311, 2-[(S)-2-aminopropyl]-5-chloro-3-(2-furyl)-7-thenylamino-1-oxa-4-azaindene] | 0.501 to 5 | 5 to 10 | 0.501 to 5
C[C@H](F)[C@H](N)Cc1oc2c(NCc3cccs3)cc(Cl)nc2c1-c1ncco1 [Compound 312, 2-[(2R,3S)-2-amino-3-fluorobutyl]-5-chloro-3-(1,3-oxazol-2-yl)-7-thenylamino-1-oxa-4-azaindene] | 0.101 to 0.5 | 0.101 to 0.5 | 1e-05 to 0.1
C[C@H](N)Cc1oc2c(NCc3cccs3)cc(Cl)nc2c1-c1ncc[nH]1 [Compound 313, 2-[(2S)-2-aminopropyl]-5-chloro-3-(1H-imidazol-2-yl)-N-(thiophen-2-ylmethyl)furo[3,2-b]pyridin-7-amine] | 10 to 40 | 5 to 10 | 10 to 40
C[C@H](N)Cc1oc2c(NCc3cccs3)cc(Cl)nc2c1-c1nccn1C [Compound 314, 2-[(S)-2-aminopropyl]-5-chloro-3-(1-methyl-2-imidazolyl)-7-thenylamino-1-oxa-4-azaindene] | 10 to 40 | 10 to 40 | 10 to 40
C[C@H](N)Cc1oc2c(NCc3cccs3)cc(Cl)nc2c1-c1ccnn1C [Compound 316, 2-[(S)-2-aminopropyl]-5-chloro-3-(1-methyl-5-pyrazolyl)-7-thenylamino-1-oxa-4-azaindene] | 10 to 40 | 10 to 40 | 10 to 40
C[C@H](N)Cc1oc2c(NCc3cccs3)cc(Cl)nc2c1-c1ccn(C)n1 [Compound 317, 2-[(S)-2-aminopropyl]-5-chloro-3-(1-methyl-3-pyrazolyl)-7-thenylamino-1-oxa-4-azaindene] | 10 to 40 | 10 to 40 | 0.501 to 5
C[C@H](N)Cc1oc2c(NCc3cccs3)cc(Cl)nc2c1-c1ccn[nH]1 [Compound 319, 2-[(S)-2-aminopropyl]-5-chloro-3-(5-pyrazolyl)-7-thenylamino-1-oxa-4-azaindene] | 0.501 to 5 | 0.501 to 5 | 0.501 to 5
Cc1coc(-c2c(C[C@H](C)N)oc3c(NCc4cccs4)cc(Cl)nc23)n1 [Compound 321, 2-[(S)-2-aminopropyl]-5-chloro-3-(4-methyl-1,3-oxazol-2-yl)-7-thenylamino-1-oxa-4-azaindene] | 0.501 to 5 | 0.501 to 5 | 0.501 to 5
Cc1cnc(-c2c(C[C@H](C)N)oc3c(NCc4cccs4)cc(Cl)nc23)o1 [Compound 322, 2-[(S)-2-aminopropyl]-5-chloro-3-(5-methyl-1,3-oxazol-2-yl)-7-thenylamino-1-oxa-4-azaindene] | 0.501 to 5 | 0.501 to 5 | 0.501 to 5
C[C@H](N)Cc1oc2c(NCc3cccs3)cc(Cl)nc2c1-c1ccoc1 [Compound 328, 2-[(S)-2-aminopropyl]-5-chloro-3-(3-furyl)-7-thenylamino-1-oxa-4-azaindene] | 10 to 40 | 10 to 40 | 10 to 40
C[C@H](F)[C@H](N)Cc1oc2c(NCc3cccs3)cc(Cl)nc2c1-c1ccco1 [Compound 331, 2-[(2R,3S)-2-amino-3-fluorobutyl]-5-chloro-3-(2-furyl)-7-thenylamino-1-oxa-4-azaindene] | 0.501 to 5 | 0.501 to 5 | 0.501 to 5
